Columns and labels:
Format in all cases: in vivo, mouse
[1] = Bile weight after a single oral administration in DIO mice; conditions: 30 mg/kg + sitagliptin 10 mg/kg p.o., 6, 12, 18, 24 h
Experimental: Bile Weight after a Single Oral Administration of the Compound
In this study, we evaluated if the observed GLP-1 elevation (induced by the compounds of the present invention) may be associated with gallbladder filling. We treated mice with Compound 268 and monitored the bile weight (a measure that indicated gallbladder filling) to determine if the compound retained more bile in the gallbladder as compared to the control mice (i.e., vehicle alone). A time course study was performed to measure weight of the bile aspirated from the gallbladder after oral administration of Compound 268 (30 mg/kg) in high fat diet induced obese (DIO) mice. In this study, GLP-1 levels were also measured at each time point (FIG. 9).
Approximately 12 week old DIO male mice (obtained from Taconic) were acclimated in the testing facility for over two weeks. The mice were provided a high fat diet [Research Diet D12492 (60% Fat kcal)] while in the testing facility. […] The blood samples were distributed as follows: 150-200 μL of blood were placed in an EDTA K^2+ tube containing 5 μL of 40 mg/mL aprotinin (Sigma A1153) and 1 μL of 10 mM sitagliptin (Sigma 58576) to be used for GLP-1 measurements; the remaining blood (≥250 μL) was placed in an EDTA K^2+ tube and plasma was processed for analytical chemistry and analyzed by LCMS/MS method as described in Example 81. […]

[2] = Plasma concentrations after chronic dosing (5 days) in DIO mice; conditions: after second and tenth dose, 0-12 h
Experimental: Plasma Concentrations after Chronic Dosing of Compound
In the study, the plasma level of compounds of the present invention (i.e., Compound 268) was monitored at day 1 and day 5. The same animal protocol as described in Examples 87 and 88 was utilized.
FIG. 14 depicts the plasma concentration of Compound 268 at 0, 3, 6, 9, and 12 hours after the second and at 3, 6, 9, and 12 hours after the tenth dose. […] No significant increases were observed over time.

[3] = Body weight over 6 weeks of BID dosing in DIO mice; conditions: 30 mg/kg BID p.o.
Experimental: Monitoring of Weight Loss after Multiple Weeks of Dosing Compounds
Compounds of the present invention were dosed for multiple weeks and were evaluated for their ability to cause mice to lose weight.
(§1) In the next series of studies (Examples 93-99), Male DIO mice were received at 12 weeks of age (from Taconic), and were single-housed at the testing facility and acclimated for at least 2 weeks. The mice were provided a high fat diet [Research Diet D12492 (60% Fat kcal)] while in the testing facility. Before the study initiation, the animals were randomized into 5 experimental groups by body weight. The vehicle group contained only 0.5% carboxymethylcellulose (medium viscosity)+0.25% Tween-80. The second group contained 10 mg/kg of the DPP-IV inhibitor Sitagliptin while the third group contained 30 mg/kg Compound 268. The fourth group contained the combination of 10 mg/kg Sitagliptin and 30 mg/kg Compound 268. The fifth group was the positive control for weight loss, Rimonabant. All mice were dosed BID at approximately 6:00 am and again at approximately 4:00 pm. The positive control rimonabant was administered at a dose of 10 mg/kg in the afternoon and the morning dosing was vehicle (no compound).
Compounds of the present invention were evaluated for their ability to cause mice to lose weight. Mice were dosed compounds for 6 weeks and body weights were recorded twice a week.

[4] = Food intake over multiple weeks of dosing in DIO mice; conditions: 30 mg/kg BID p.o., 6 weeks
Description: as §1, with “compound). […]” for “compound).”
Compounds of the present invention were dosed for multiple weeks and were evaluated for their ability to cause mice to have a lower food intake. […]
The HFD (Research Diets, D12492, 60% fat kcal) was placed at the bottom of the cage on a singly-housed animal. […] Daily food intake is calculated by averaging over a 3 or 4 day period every week.

- plasma level of compound after chronic dosing [2]: maintained at a low concentration level
Structure (SMILES): N#Cc1ccc(CCNC(=O)[C@@H]2CCN2c2cc(N3CCC(CCNC(=O)NCCC(=O)O)CC3)nc(C(F)(F)F)n2)cc1 [Compound 268, (S)-3-(3-(2-(1-(6-(2-((4-cyanophenethyl)carbamoyl)azetidin-1-yl)-2-(trifluoromethyl)pyrimidin-4-yl)piperidin-4-yl)ethyl)ureido)propanoic acid]
- bile weight [1]: did not cause any significant increase in bile weight
- body weight change [3]: modest weight loss
- food intake [4]: minor, but steady effect on food intake
